Measurements taken from US8173788B2, “Peptide having ability to activate cancer-related gene” (priority 2005, dated 2012).
Where no end group is shown, it is not given here.

Legend:
cancer-related gene = experiment: DNA chip analysis of cancer-related gene expression after treatment with the HPLC-purified peptide (Table 1); format: cell-based, human
Method: (§1) In this diagnosis method, cells or tissues of interest are treated with the peptide of the present invention as in the above-mentioned diagnosis method 1; thus the same specimen as in the diagnosis method 1 can be used. However, in this diagnosis method, the reverse transcription is conducted to generate a cDNA (first-strand cDNA) pool, which is complementary to the mRNA, by using total mRNA extracted from the cells or tissues treated with the peptide as a template and using oligo-dT primer having T7 RNA polymerase promoter region as a reverse primer. Then, after the second-strand cDNA synthesis, in vitro transcription (IVT) was conducted using T7 RNA polymerase and biotinylated rNTPs at 37° C. for 14 hr to yield biotin-labeled cRNA. The amount of the cRNA is measured with a spectrophotometer to confirm that at least […] of cRNA can be yielded.
(§2) The diagnosis method further includes processes for bringing this cRNA labeled with fluorescence dye or the like into contact with cDNA of a cancer-related gene which is immobilized on a plate for hybridization and for measuring the fluorescence intensity.
(§3) Thus, on the basis of the expression condition of a cancer-related gene, a tendency of canceration or malignancy of cancer can be determined.
(§4) An increase or decrease in the expression amount of a cancer-related gene is determined by comparing the expression level in a control. The cells and tissues used as the control are the same as those used in the diagnosis method 1.
(§5) Tables 1 and 2 show examples of cancer-related genes of which expression is increased and immune system genes of which expression is increased or decreased by the treatment with the peptide (HPLC-purified peptide) derived from cell membrane surfaces of human squamous-cell carcinoma cells UTC-8 (Deposition No.: FERM BP-08611, which is deposited with International Patent Organism Depositary, National Institute of Advanced Industrial Science and Technology).
(§6) The present inventor has verified the validity of this diagnosis method using 55000 cancer-related genes. When such a great number of cancer-related genes are used, DNA chip technology is preferably used. In the DNA chip technology, each DNA of the cancer-related genes is immobilized so as to be arrayed on a slide; the above-mentioned labeled cRNA solution is dropped into the slide; the cRNA which is not hybridized is removed by washing; and fluorescence intensity of each gene position is detected by a scanner. The results are compared with the result which is obtained by conducting the same process using the above-mentioned control solution. Thus, cancer-related genes of which expression is increased or decreased when cells or tissues are treated with the peptide of the present invention can be exhaustively analyzed.

immune system gene = experiment: DNA chip analysis of immune system gene expression after treatment with the HPLC-purified peptide (Table 2); format: cell-based, human
Method: as §1, §2, §3, §4, §5, §6

QPQFGRRMESK [HPLC-purified peptide, peptide (HPLC-purified peptide) derived from cell membrane surfaces of human squamous-cell carcinoma cells UTC-8]
Fold Change (cancer-related gene; gene AF040963 MXD4): 2.357 | Fold Change (cancer-related gene; gene D16431 HDGF): 3.596 | Fold Change (cancer-related gene; gene D26120 splicing factor 1): 2.833 | Fold Change (cancer-related gene; gene K03218 SRC, v-src sarcoma viral oncogene homolog): 3.912 | Fold Change (cancer-related gene; gene M13150 MAS1): 2.07 | Fold Change (cancer-related gene; gene M32977 VEGF): 2.457 | Fold Change (cancer-related gene; gene M60119 HIVEP2): 2.205 | Fold Change (cancer-related gene; gene M62829 EGR1): 2.105 | Fold Change (cancer-related gene; gene M83221 RELB): 2.351 | Fold Change (cancer-related gene; gene M95712 BRAF): 3.034 | Fold Change (cancer-related gene; gene NM_000753 PDE3B): 2.741 | Fold Change (cancer-related gene; gene NM_001201 BMP3): 3.736 | Fold Change (cancer-related gene; gene NM_001402 EEF1A1): 2.405 | Fold Change (cancer-related gene; gene NM_001419 ELAVL1): 2.95 | Fold Change (cancer-related gene; gene NM_001511 CXCL1): 2.477 | Fold Change (cancer-related gene; gene NM_001570 IRAK2): 2.24 | Fold Change (cancer-related gene; gene NM_001665 ARHG): 2.111 | Fold Change (cancer-related gene; gene NM_002357 MAD): 2.397 | Fold Change (cancer-related gene; gene NM_002613 PDPK1): 2.866 | Fold Change (cancer-related gene; gene NM_002712 PPP1R7): 2.697 | Fold Change (cancer-related gene; gene NM_003017 SFRS3): 2.742 | Fold Change (cancer-related gene; gene NM_003685 KHSRP): 2.04 | Fold Change (cancer-related gene; gene NM_004204 PIGQ): 2.756 | Fold Change (cancer-related gene; gene NM_004218 RAB11B, member RAS oncogene family): 2.102 | Fold Change (cancer-related gene; gene NM_004723 ARHGEF2): 2.209 | Fold Change (cancer-related gene; gene NM_004906 WTAP): 2.544 | Fold Change (cancer-related gene; gene NM_005207 CRKL): 2.497 | Fold Change (cancer-related gene; gene NM_005524 HES1): 2.395 | Fold Change (cancer-related gene; gene NM_005730 CTDSP2, conserved gene amplified in osteosarcoma): 2.387 | Fold Change (cancer-related gene; gene NM_005850 SF3B4): 3.023 | Fold Change (cancer-related gene; gene NM_005937 MLLT6): 2.996 | Fold Change (cancer-related gene; gene NM_006191 PA2G4): 2.002 | Fold Change (cancer-related gene; gene NM_006318 putative glialblastoma cell differentiation-related): 2.098 | Fold Change (cancer-related gene; gene NM_006694 JTB): 2.019 | Fold Change (cancer-related gene; gene NM_006716 ASK, activator of S phase kinase): 2.23 | Fold Change (cancer-related gene; gene NM_006842 splicing factor 3b, subunit 2, 145 kDa): 2.245 | Fold Change (cancer-related gene; gene NM_007040 E1B-AP5): 2.433 | Fold Change (cancer-related gene; gene NM_007279 U2AF2): 2.494 | Fold Change (cancer-related gene; gene NM_012103 AUP1): 2.46 | Fold Change (cancer-related gene; gene NM_014308 P101-PI3K): 2.849 | Fold Change (cancer-related gene; gene NM_015714 G0S2): 2.481 | Fold Change (cancer-related gene; gene NM_016263 FZR1): 2.466 | Fold Change (cancer-related gene; gene U33819 MAZ): 2.093 | Fold Change (cancer-related gene; gene X03663 CSF1R): 2.781 | Fold Change (cancer-related gene; gene X54936 PGF): 3.576 | Fold Change (cancer-related gene; gene X61498 NFKB2): 2.833 | Fold Change (cancer-related gene; gene X78710 MTF1): 2.001 | TDP (immune system gene; enhanced gene D10202 platelet-activating factor receptor): 1.506 | TDP (immune system gene; enhanced gene J04130 chemokine (C-C motif) ligand 4): 7.341 | TDP (immune system gene; enhanced gene K02770 interleukin 1, beta): 11.69 | TDP (immune system gene; enhanced gene NM_000173 glycoprotein Ib (platelet), alpha polypeptide): 1.529 | TDP (immune system gene; enhanced gene NM_000211 integrin, beta 2): 3.326 | TDP (immune system gene; enhanced gene NM_001733 complement component 1, r subcomponent): 1.543 | TDP (immune system gene; enhanced gene NM_002000 Fc fragment of IgA, receptor for): 1.871 | TDP (immune system gene; enhanced gene NM_002969 mitogen-activated protein kinase 12): 1.53 | TDP (immune system gene; enhanced gene NM_002983 chemokine (C-C motif) ligand 3): 1.542 | TDP (immune system gene; enhanced gene NM_003199 transcription factor 4): 1.621 | TDP (immune system gene; enhanced gene NM_006186 nuclear receptor subfamily 4, group A, member 2): 2.06 | TDP (immune system gene; enhanced gene X03663 colony stimulating factor 1 receptor): 2.781 | TDP (immune system gene; suppressed gene K01171 major histocompatibility complex, class II, DR alpha): 0.319 | TDP (immune system gene; suppressed gene NM_000397 cytochrome b-245, beta polypeptide): 0.631 | TDP (immune system gene; suppressed gene NM_001311 cysteine-rich protein 1 (intestinal)): 0.561 | TDP (immune system gene; suppressed gene NM_001776 ectonucleoside triphosphate diphosphohydrolase 1): 0.646 | TDP (immune system gene; suppressed gene NM_001783 CD79A antigen): 0.4 | TDP (immune system gene; suppressed gene NM_002118 major histocompatibility complex, class II, DM beta): 0.335 | TDP (immune system gene; suppressed gene NM_002121 major histocompatibility complex, class II, DP beta 1): 0.633 | TDP (immune system gene; suppressed gene NM_002123 major histocompatibility complex, class II, DQ beta 1): 0.328 | TDP (immune system gene; suppressed gene NM_002124 major histocompatibility complex, class II, DR beta 1): 0.502 | TDP (immune system gene; suppressed gene NM_002258 killer cell lectin-like receptor subfamily B, member 1): 0.653 | TDP (immune system gene; suppressed gene NM_002260 killer cell lectin-like receptor subfamily C, member 2): 0.603 | TDP (immune system gene; suppressed gene NM_003891 protein Z, vitamin K-dependent plasma glycoprotein): 0.618 | TDP (immune system gene; suppressed gene NM_004106 Fc fragment of IgE, high affinity I, receptor for, gamma polypeptide): 0.382 | TDP (immune system gene; suppressed gene NM_004133 hepatocyte nuclear factor 4, gamma): 0.635 | TDP (immune system gene; suppressed gene NM_004528 microsomal glutathione S-transferase 3): 0.561 | TDP (immune system gene; suppressed gene NM_004636 sema domain, (semaphorin) 3B): 0.459 | TDP (immune system gene; suppressed gene NM_004750 cytokine receptor-like factor 1): 0.626 | TDP (immune system gene; suppressed gene NM_005545 immunoglobulin superfamily containing leucine-rich repeat): 0.579 | TDP (immune system gene; suppressed gene NM_006120 major histocompatibility complex, class II, DM alpha): 0.298 | TDP (immune system gene; suppressed gene NM_006864 leukocyte immunoglobulin-like receptor, subfamily B, member 3): 0.662 | TDP (immune system gene; suppressed gene NM_007052 NADPH oxidase 1): 0.662 | TDP (immune system gene; suppressed gene NM_014442 sialic acid binding Ig-like lectin 8): 0.641 | TDP (immune system gene; suppressed gene NM_016523 killer cell lectin-like receptor subfamily F, member 1): 0.644 | TDP (immune system gene; suppressed gene NM_018661 defensin, beta 103): 0.528 | TDP (immune system gene; suppressed gene U77604 microsomal glutathione S-transferase 2): 0.349 | TDP (immune system gene; suppressed gene Y00815 protein tyrosine phosphatase, receptor type, F): 0.475
